Assay results reported in patent US20210198201A1, “Orally Active Melanocortin Receptor-4 Compounds” (Palatin Technologies, Inc., priority 2018, published 2021).

Tests used:
[1] = test system: MC4r (−/−) mice; test: Oral administration in MC4r knockout mice, feed intake and body weight; format: in vivo, mouse
Procedure: (§1) Feed intake and body weight was evaluated in MCr4 knockout (MC4r−/−) mice (Jackson Laboratories) compared to C57Bl/6 DIO mice. […] Feed weights were taken at time 0, 2, 6 and 24 hours post lights out. […] The change in body weight is shown in FIG. 4 starting on study day 5, the first day of administration of compound 7.1. […] Additionally, there was a statistically significant mean difference, 2.8%, 95% Cl (1.281, 4.253), and p value <0.0001 between DIO mice receiving compound 7.1 and MC4r (−/−) receiving compound 7.1.

[2] = target: T1, MC4r (Homo sapiens, UniProt P32245); test: Binding of iodine-125 labeled NDP-α-MSH, human recombinant CHO cells, hMC4r; design: expressed in transfected cells; host or cells: CHO
Procedure: (§2) Melanocortin receptor binding and function of Compound 7.1 was tested. Ki binding values (nM) were calculated utilizing the percent inhibit of the binding of iodine-125 labeled NDP-α-MSH against B16-F1 cells for mMC1r, and human recombinant CHO cells for hMC3r, hMC4r and hMC5r, with the inhibition constant calculated using the Cheng Prusoff equation. Functional results (EC50 and efficacy) were calculated utilizing cAMP assays with NDP-α-MSH for mMC1r, hMC3r and hMC4r, ACTH for hMC2r, and α-MSH for hMC5r for agonist measures, with the same target cells for melanocortin receptors mMC1r, hMC3r, hMC4r and hMC5r, and human recombinant Cloudman M3 cells for hMC2r.

[3] = target: T1, MC4r; test: Competitive inhibition binding assay, MC4r; design: expressed in transfected cells; host or cells: HEK-293 (membrane homogenates); details: binding studies
Procedure: A competitive inhibition binding assay is performed using membrane homogenates prepared from HEK-293 cells that express recombinant hMC1ra, hMC4r, hMC3r, or hMC5r, and from B16-F10 mouse melanoma cells (containing endogenous MC1r). In the examples that follow, all values are for human recombinant receptors unless otherwise noted. Assays are performed in 96 well GF/B Millipore multiscreen filtration plates (MAFB NOB10) pre-coated with 0.5% bovine serum albumin (Fraction V). […] After incubation for 60 to 90 minutes at 37° C., the assay mixture is filtered and the membranes washed three times with ice-cold buffer. Filters are dried and counted in a gamma counter for bound radioactivity.
Maximal specific binding (100%) is defined as the difference in radioactivity (cpm) bound to cell membranes in the absence and presence of 1 μM NDP-α-MSH. […] Each assay is conducted in duplicate or triplicate and the actual mean values are described, with results less than 0% reported as 0%. Ki values for test compounds are determined using Graph-Pad Prism® curve-fitting software.
Competitive Binding Assay Using Eu-NDP-α-MSH. Alternatively, a competitive inhibition binding assay is performed employing Eu-NDP-α-MSH (PerkinElmer Life Sciences catalog No. AD0225) with determination by time-resolved fluorometry (TRF) of the lanthanide chelate. […] After incubation for 90 minutes at 37° C., the reaction was stopped by filtration over Acro Well 96-well filter plates (Pall Life Sciences). The filter plates were washed 4 times with 200 μL of ice-cold phosphate-buffered saline. DELFIA Enhancement solution (PerkinElmer Life Sciences) was added to each well. The plates were incubated on a shaker for 15 minutes and read at 340 nm excitation and 615 nm emission wavelengths. Each assay was conducted in duplicate and mean values were utilized. Ki values were determined by curve-fitting with Graph-Pad Prism® software using a one-site fixed-slope competition binding model.

[4] = target: T2, mMC1r (Mus musculus, UniProt Q01727); test: Binding of iodine-125 labeled NDP-α-MSH, B16-F1 cells, mMC1r
T2 construct: endogenous in cells; host or cells: B16-F1
Procedure: as §2

[5] = Plasma concentrations following oral administration in Sprague-Dawley rats; format: in vivo, rat; details: oral 30 mg/kg
Procedure: Plasma samples were measured at 15 minutes (2 animals) and 30 minutes, 1 hour, 2 hours, 4 hours, 8 hours and 24 hours (3 animals) post oral administration.

[6] = target: T3, hMC5r (Homo sapiens, UniProt P33032); test: Binding of iodine-125 labeled NDP-α-MSH, human recombinant CHO cells, hMC5r
T3 construct: expressed in transfected cells; host or cells: CHO
Procedure: as §2

[7] = test system: C57Bl/6 DIO mice; test: Oral administration, feed intake and body weight in C57Bl/6 DIO mice (comparison with MC4r knockout); format: in vivo, mouse
Procedure: as §1

[8] = target: T3, hMC5r; test: cAMP assay hMC5r (human recombinant CHO cells, α-MSH reference); format: cell-based
Procedure: as §2

[9] = target: T1, MC4r; test: cAMP assay hMC4r (human recombinant CHO cells, NDP-α-MSH reference); format: cell-based; design: expressed in transfected cells; host or cells: CHO
Procedure: as §2

[10] = test system: Male mice homozygous for the obese spontaneous mutation, Lep^ob; test: Oral administration in leptin-deficient obese mice, body weight; format: in vivo, mouse; details: 30 mg/kg twice daily for six days
Procedure: Male mice homozygous for the obese spontaneous mutation, Lep^ob, with resulting leptin protein deficiency, were individually housed with free access to feed and drinking water. All animals were sham-dosed twice daily for five days prior to initial drug administration, utilizing a vehicle dose of 3.2% mannitol and […] tris(hydroxymethyl)aminomethane at pH 7.4. On day 6 a cohort of the mice received compound 7.1 dissolved into the vehicle twice daily for six consecutive days at a dose of 30 mg/kg. Body weight of animals was measured daily, with data analyzed as the percent change from baseline of each individual animal, where baseline was defined as the average weight during the first three days of sham dosing. The averaged percent change from baseline of a vehicle group was then subtracted from each value to correct for continued weight gain or other study-wide factors. The change in body weight is shown in FIG. 3 starting on study day 1, the first day of administration of compound 7.1.

[11] = target: T4, hMC2r (Homo sapiens, UniProt Q01718); test: cAMP assay hMC2r (human recombinant Cloudman M3 cells, ACTH reference); format: cell-based
T4 construct: expressed in transfected cells; host or cells: Cloudman M3
Procedure: as §2

[12] = target: T5, hMC3r (Homo sapiens, UniProt P41968); test: cAMP assay hMC3r (human recombinant CHO cells, NDP-α-MSH reference); format: cell-based
T5 construct: expressed in transfected cells; host or cells: CHO
Procedure: as §2

[13] = target: T5, hMC3r; test: Binding of iodine-125 labeled NDP-α-MSH, human recombinant CHO cells, hMC3r
Procedure: as §2

T1 sequence (P32245 whole entry): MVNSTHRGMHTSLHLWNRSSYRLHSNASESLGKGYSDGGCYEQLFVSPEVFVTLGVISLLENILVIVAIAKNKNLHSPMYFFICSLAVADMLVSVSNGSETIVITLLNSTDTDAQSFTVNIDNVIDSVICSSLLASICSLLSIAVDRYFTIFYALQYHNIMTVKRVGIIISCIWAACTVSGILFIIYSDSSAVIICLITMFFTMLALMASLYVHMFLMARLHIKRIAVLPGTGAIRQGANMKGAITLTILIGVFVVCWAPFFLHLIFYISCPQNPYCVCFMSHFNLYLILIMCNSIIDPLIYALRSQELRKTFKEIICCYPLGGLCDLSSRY
T3 sequence (P33032 whole entry): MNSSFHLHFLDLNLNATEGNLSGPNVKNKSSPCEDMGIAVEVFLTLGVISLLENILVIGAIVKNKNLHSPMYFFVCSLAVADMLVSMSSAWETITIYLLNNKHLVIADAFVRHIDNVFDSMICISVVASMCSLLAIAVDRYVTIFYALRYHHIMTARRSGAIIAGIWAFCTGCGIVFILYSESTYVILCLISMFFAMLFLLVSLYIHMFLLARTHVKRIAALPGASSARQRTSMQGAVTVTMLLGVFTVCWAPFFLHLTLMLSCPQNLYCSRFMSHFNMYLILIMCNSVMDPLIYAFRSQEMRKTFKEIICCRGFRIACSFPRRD
T5 sequence (P41968 whole entry): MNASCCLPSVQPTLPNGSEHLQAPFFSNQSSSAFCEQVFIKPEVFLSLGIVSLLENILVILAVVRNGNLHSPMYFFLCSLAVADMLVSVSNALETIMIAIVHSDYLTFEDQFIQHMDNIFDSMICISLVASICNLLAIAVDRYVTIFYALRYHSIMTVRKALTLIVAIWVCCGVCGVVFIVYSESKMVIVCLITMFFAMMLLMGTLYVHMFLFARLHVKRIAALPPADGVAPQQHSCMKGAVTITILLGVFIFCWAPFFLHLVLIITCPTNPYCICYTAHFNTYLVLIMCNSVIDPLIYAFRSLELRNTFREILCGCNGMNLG
T4 sequence (Q01718 whole entry): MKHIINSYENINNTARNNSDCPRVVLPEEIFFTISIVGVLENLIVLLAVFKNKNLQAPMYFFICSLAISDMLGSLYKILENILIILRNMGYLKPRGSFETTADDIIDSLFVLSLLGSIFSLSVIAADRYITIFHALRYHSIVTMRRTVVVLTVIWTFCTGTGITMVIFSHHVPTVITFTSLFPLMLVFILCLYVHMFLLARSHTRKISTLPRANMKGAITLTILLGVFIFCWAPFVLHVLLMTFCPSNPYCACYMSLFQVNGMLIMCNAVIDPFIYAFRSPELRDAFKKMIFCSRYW
T4 sequence (Q9D159 whole entry partner): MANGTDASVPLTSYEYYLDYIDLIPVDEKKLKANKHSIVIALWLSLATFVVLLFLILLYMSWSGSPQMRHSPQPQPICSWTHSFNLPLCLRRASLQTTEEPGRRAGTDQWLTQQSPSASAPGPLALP
T2 sequence (Q01727 whole entry): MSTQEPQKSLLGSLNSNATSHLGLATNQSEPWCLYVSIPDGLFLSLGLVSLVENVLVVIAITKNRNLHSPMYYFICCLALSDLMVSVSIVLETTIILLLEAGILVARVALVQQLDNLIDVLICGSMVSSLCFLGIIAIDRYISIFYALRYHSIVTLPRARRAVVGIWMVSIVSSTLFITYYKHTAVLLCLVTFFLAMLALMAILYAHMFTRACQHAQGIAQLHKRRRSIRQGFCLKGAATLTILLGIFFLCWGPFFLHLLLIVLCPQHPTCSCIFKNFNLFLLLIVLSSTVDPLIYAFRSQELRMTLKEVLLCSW

SMILES: CC(=O)N1CCC(N(CC(C)C)N2CCN(C(=O)[C@@H](Cc3ccc(Cl)cc3)NC(=O)C(C)(C)N)CC2)CC1 [Compound 7.1, N-[(1R)-2-[4-[(1-acetyl-4-piperidyl)-isobutyl-amino]piperazin-1-yl]-1-[(4-chlorophenyl)methyl]-2-oxo-ethyl]-2-amino-2-methyl-propanamide]
- notable mean percentage body weight change difference between treated group and vehicle (in words) ([1]; 30 mg/kg twice daily): not
- food consumption vs vehicle only (in words) ([1]; 30 mg/kg twice daily oral gavage): no differences
- Ki [2]: 14 nM
- Ki [3]: 5 nM
- Ki [4]: 93 nM
- Tax [5]: 2 h
- Cmax ([5]; rat, plasma): 780 ng/mL
- half-life ([5]; rat, plasma, read-out: terminal half-life (converted)): 3.94 h
- Ki [6]: 1200 nM
- effect on body weight vs own vehicle group (in words) ([7]; 30 mg/kg two daily administrations via oral gavage): significant body weight loss
- food consumption vs vehicle only (in words) ([7]; 6 and 24 hour timepoints, 30 mg/kg twice daily oral gavage): significantly decreased
- EC50 [8]: > 1000 nM
- EC50 [9]: 6 nM
- decrease in body weight compared to vehicle controls [10]: 4.8%
- EC50 [11]: > 1000 nM
- EC50 [12]: > 1000 nM
- Ki [13]: 1300 nM
